Assay: Antioxidant effect, ORAC-FL method (capacity to capture free radicals)
Conditions: 75 mM phosphate buffer pH 7.4, 37° C., compounds tested at 4 concentrations
Excerpt: Given that in many neurodegenerative diseases neuronal death occurs due to oxidative stress, the capacity of these compounds to capture free radicals has been evaluated using the ORAC methodology.
Determination is following the ORAC-FL method of Ou et al. partially adapted by BMG LABTECH (BMG LABTECH Application note 148 (2006): ORAC Assay on the FLUOstar OPTIMA to Determine Antioxidant Capacity. http://www.bmglabtech.com/application-notes/fluorescence-intensity/orac 148.cfm). The FLUOstar Optima (BMG Labtechnologies GmbH, Offenburg, Germany) plate reader was used with an excitation filter at 485 nm excitation and 520 nm emission. 2,2′-Azobis-(amidinopropane) dihydrochloride (AAPH), (±)-6-hydroxy-2,5,7,8-tetramethylchromane-2-carboxylic acid (trolox) and fluorescein (FL) are purchased from Sigma-Aldrich. The reaction is carried out in 75 mM phosphate buffer (pH 7.4) and a final reaction volume of 200 μL. The antioxidant (25 μL) and fluorescein (150 μL; 10 nM) are placed on black 96-well plates (96F untreat, Nunc™). The mixture is pre-incubated during 30 minutes at 37° C. afterwards rapidly adding a solution of AAPH (25 μL, 240 mM), using a multi-channel pipette. The microplate is rapidly placed on the reader and fluorescence is measured every 90 sec during 90 min. The 96-well plate is agitated automatically before each reading. The compounds are tested at 4 different concentrations (10-1 μ). A blank is also placed (FL+AAPH in phosphate buffer) and as reference compound four concentrations of trolox (10-1 μM). All reactions are carried out in duplicate, and at least three different tests per compound. Data are exported to an Excel spreadsheet (Microsoft), representing absorbance versus time and subsequently the area under curve is calculated following the formula (1) AUC=f1/f0+fi/f0+ . . . +f34/f0+(f35/f0) wherein: AUC=area under curve • f0=fluorescence measured at time 0 • fi=fluorescence measured at time t
The net AUC values of each compound are determined by subtracting from the AUC value of the compound the AUC value of the blank (FL+AAPH in phosphate buffer).
The measurement of antioxidant is expressed in trolox equivalents. Relative trolox equivalents are calculated according to formula (2): […]

SMILES | Antioxidant capacity, Trolox equivalents
O=c1c2ccccc2[nH]c(=S)n1-c1ccccc1 [Comp. 1, 3-phenyl-4-oxo-2-thioxo-1,2,3,4-tetrahydroquinazoline] | 1.19 Trolox equivalents
O=c1c2ccccc2[nH]c(=S)n1-c1c(F)cccc1F [Comp. 2, 3-(2,6-difluorophenyl)-4-oxo-2-thioxo-1,2,3,4-tetrahydroquinazoline] | Not to 10 μM
Cc1cccc2c(=O)n(-c3ccccc3Br)c(=S)[nH]c12 [Comp. 3, 3-(2-bromophenyl)-8-methyl-4-oxo-2-thioxo-1,2,3,4-tetrahydroquinazoline] | 1.31 Trolox equivalents
CSc1nc2c(C)cccc2c(=O)n1-c1c(F)cccc1F [Comp. 4, 3-(2,6-difluorophenyl)-8-methyl-2-methylthio-4-oxo-3,4-dihydroquinazoline] | 0.13 Trolox equivalents
CSc1nc2c(C)cccc2c(=O)n1-c1ccccc1Br [Comp. 5, 3-(2-bromophenyl)-8-methyl-2-methylthio-4-oxo-3,4-dihydroquinazoline] | Not to 10 μM
S=c1[nH]c2ccccc2c(=S)n1-c1ccccc1 [Comp. 6, 3-phenyl-2,4-dithioxo-1,2,3,4-tetrahydroquinazoline] | 0.46 Trolox equivalents
CSc1nc2ccccc2c(=S)n1-c1ccccc1 [Comp. 7, 3-phenyl-2-methylthio-4-thioxo-3,4-dihydroquinazoline] | 0.37 Trolox equivalents

Assay: not given
Conditions: commercial drugs used to validate the PAMPA assay; literature value; cited from earlier work

SMILES | Bibliography (described permeability)
CCn1cc(C(=O)O)c(=O)c2cc(F)c(N3CCNCC3)nc21 [Enoxacine] | 1.8
CN(C)CCCN1c2ccccc2Sc2ccccc21 [Promazine] | 8.1
